In US20080171783A1, “COMPOSITIONS AND METHODS FOR TREATING HYPERPROLIFERATIVE DISEASE” (Migenix Inc., priority 2006, published 2008) one finds inhibition and IC50 data, which are given here for five compounds.

In assay [1] the target is T1, Calf polymerase alpha (Bos taurus, UniProt A0AAA9TD94).
T1 construct: purchased Replizyme Ltd (Heslington, York, UK)
T1 sequence (A0AAA9TD94 1-1441): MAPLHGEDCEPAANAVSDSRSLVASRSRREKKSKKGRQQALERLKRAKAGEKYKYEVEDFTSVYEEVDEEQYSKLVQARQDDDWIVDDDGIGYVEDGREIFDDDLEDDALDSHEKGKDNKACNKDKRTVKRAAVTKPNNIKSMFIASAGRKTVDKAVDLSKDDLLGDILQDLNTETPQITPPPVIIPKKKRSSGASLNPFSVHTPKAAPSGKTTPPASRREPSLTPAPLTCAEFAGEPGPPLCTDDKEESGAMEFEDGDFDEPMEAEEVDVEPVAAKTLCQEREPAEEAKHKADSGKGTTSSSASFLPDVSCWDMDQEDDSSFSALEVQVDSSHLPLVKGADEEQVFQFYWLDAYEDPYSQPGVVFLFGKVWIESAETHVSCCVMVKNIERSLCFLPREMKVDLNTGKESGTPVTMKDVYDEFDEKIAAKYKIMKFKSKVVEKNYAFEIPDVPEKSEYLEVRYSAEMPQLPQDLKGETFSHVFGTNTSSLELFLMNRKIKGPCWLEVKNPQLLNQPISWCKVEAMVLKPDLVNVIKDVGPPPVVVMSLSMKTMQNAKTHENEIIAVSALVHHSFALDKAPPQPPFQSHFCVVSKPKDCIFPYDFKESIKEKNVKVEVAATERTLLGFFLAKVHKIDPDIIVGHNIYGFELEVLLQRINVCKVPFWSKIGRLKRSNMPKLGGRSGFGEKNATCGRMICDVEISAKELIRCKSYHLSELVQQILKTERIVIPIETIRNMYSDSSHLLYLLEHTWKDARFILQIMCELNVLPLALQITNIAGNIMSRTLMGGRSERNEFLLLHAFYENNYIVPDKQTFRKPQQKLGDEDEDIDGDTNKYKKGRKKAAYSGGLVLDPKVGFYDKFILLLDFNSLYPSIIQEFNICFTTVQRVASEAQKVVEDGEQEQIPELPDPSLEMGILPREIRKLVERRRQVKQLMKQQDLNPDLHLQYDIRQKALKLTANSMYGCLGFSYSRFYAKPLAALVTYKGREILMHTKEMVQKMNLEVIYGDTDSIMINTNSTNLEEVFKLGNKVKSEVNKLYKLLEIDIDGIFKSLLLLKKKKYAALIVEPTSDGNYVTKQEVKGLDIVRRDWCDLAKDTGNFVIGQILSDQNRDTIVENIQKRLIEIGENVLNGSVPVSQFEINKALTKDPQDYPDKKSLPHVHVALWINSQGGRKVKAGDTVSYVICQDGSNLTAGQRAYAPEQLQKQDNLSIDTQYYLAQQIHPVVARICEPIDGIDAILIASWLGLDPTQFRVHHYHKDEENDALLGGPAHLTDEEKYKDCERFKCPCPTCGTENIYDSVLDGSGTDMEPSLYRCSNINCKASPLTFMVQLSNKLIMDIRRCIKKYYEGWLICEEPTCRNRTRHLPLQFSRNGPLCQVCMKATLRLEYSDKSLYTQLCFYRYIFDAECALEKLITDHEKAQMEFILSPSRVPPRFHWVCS
Briefly: Calf polymerase alpha inhibition (Replizyme kit). In kind it is biochemical. The settings on record: for inhibition at 10 µM: single point screening; for IC50: dose response. As to the method:
Calf polymerase alpha and human polymerase alpha investigations were performed with a kit available from Replizyme Ltd (Heslington, York, UK).

The target of assay [2] is T2, human polymerase alpha (Homo sapiens, UniProt P09884).
T2 construct: purchased Replizyme Ltd (Heslington, York, UK)
T2 sequence (P09884 1-1462): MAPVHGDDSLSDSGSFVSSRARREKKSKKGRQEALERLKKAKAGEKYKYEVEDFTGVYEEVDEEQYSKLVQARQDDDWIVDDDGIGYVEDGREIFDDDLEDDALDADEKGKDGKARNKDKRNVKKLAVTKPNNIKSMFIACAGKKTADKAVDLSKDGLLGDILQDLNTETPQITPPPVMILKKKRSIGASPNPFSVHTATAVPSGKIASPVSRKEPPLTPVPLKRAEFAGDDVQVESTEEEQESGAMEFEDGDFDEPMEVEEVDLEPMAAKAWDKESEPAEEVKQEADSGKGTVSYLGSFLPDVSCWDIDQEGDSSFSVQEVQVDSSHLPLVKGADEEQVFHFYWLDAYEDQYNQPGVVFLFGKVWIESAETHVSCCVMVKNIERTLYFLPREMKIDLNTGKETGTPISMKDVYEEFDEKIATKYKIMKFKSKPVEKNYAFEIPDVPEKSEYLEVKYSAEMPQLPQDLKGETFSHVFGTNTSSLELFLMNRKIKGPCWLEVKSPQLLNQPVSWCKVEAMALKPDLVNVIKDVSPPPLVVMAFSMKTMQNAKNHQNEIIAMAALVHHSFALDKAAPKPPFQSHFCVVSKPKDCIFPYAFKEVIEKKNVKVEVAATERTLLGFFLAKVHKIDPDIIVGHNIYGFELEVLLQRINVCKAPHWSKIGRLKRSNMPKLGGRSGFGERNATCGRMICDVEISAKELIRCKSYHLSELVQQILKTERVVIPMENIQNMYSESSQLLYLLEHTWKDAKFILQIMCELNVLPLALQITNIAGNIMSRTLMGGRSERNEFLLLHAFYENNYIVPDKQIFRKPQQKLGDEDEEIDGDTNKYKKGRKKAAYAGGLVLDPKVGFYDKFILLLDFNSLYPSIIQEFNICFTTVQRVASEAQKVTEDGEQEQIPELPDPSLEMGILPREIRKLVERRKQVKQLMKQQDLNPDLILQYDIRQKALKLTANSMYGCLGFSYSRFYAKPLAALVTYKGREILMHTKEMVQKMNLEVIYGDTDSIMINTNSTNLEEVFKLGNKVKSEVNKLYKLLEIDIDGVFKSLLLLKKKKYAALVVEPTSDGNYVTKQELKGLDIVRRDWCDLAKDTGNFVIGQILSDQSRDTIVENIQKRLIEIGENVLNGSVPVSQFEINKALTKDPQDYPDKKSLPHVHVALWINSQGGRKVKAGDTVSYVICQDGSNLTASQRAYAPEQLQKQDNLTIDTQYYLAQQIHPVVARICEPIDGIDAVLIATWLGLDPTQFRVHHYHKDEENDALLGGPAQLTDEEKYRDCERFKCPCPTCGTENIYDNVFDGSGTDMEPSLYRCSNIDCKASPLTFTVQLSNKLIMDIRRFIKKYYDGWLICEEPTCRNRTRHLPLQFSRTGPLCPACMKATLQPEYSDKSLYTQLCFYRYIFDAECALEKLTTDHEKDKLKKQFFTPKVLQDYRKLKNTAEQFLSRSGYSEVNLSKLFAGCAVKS
Briefly: Homotemplate enzymatic assay, polymerase alpha. In kind it is biochemical. The following applies: four concentrations, homotemplate format. How it is done: To test for selectivity, an enzymatic assay of activity in human polymerase alpha and human polymerase gamma was performed using a homotemplate assay format (Replizyme Ltd., Heslington, York, UK). The IC50 was measured by testing four different concentrations of a selected compound as compared to an untreated control.

Each structure is given as a SMILES string. Some results are limits rather than exact numbers.

What is called inhibition is the drop in the measured response relative to a control, in per cent. A higher inhibition goes with strong suppression. In assay [1], `CC(C)(C)c1ccc(NC(=O)[C@H](CCCCN)NC(=O)OCC2c3ccccc3-c3ccccc32)cc1` [Compound 105, (S)-[5-AMINO-1-(4-TERT-BUTYL-PHENYLCARBAMOYL)-PENTYL]-CARBAMIC ACID 9H-FLUOREN-9-YLMETHYL ESTER] displayed an inhibition at 10 µM of 100%.
What is called IC50 is the concentration that inhibits the measured activity by half. Lower therefore signals greater potency. As to `Cc1ccc(NC(=O)[C@@H](CCCCN)NC(=O)Nc2ccc3c(c2)Cc2ccccc2-3)cc1` [Compound 173, (R)-6-AMINO-2-[3-(9H-FLUOREN-2-YL)-UREIDO]-HEXANOIC ACID P-TOLYLAMIDE], in assay [2], the IC50 was < 4 µM. At 10 µM the inhibition in assay [1] was 99%.
`Cc1ccc(NC(=O)[C@H](CCCCN)NC(=O)Nc2ccc(OCc3ccccc3)cc2)cc1` [Compound 2, (S)-6-AMINO-2-[3-(4-BENZYLOXY-PHENYL)-UREIDO]-HEXANOIC ACID P-TOLYLAMIDE]: the IC50 in assay [2] was < 4 µM; in assay [1], 13 µM.
Take `Cc1cc2cc(NC(=O)[C@H](CCCNC(=O)CN)NC(=O)Nc3ccc4c(c3)Cc3ccccc3-4)ccc2[nH]1` [Compound 297, (S)-5-(2-AMINO-ACETYLAMINO)-2-[3-(9H-FLUOREN-2-YL)-UREIDO]-PENTANOIC ACID (2-METHYL-1H-INDOL-5-YL)-AMIDE]: the IC50 in assay [2] was < 4 µM. In assay [1], this compound had an inhibition at 10 µM of 16.5% and an IC50 of 26 µM.
As to `COC(=O)c1ccc(COc2ccc(NC(=O)N[C@@H](CCCCN)C(=O)Nc3ccc(C)cc3)cc2)cc1` [Compound 199, (S)-4-{4-[3-(5-AMINO-1-P-TOLYLCARBAMOYL-PENTYL)-UREIDO]-PHENOXYMETHYL}-BENZOIC ACID METHYL ESTER], the IC50 in assay [2] was ~4 µM; in assay [1], 7.9 µM. At 10 µM the inhibition in assay [1] was 39.7%.
